Data from patent publication US4634712A, “Antihypertensive esters of 1,4-dihydro-2,6-dimethyl-3-(alkoxycarbonyl or alkoxyalkoxycarbonyl)-4-(substituted phenyl)-pyridine-5-carboxylic acid” (Recordati S.A., priority 1984, dated 1987).

Columns and labels:
[1] = system: male hypertensive rats (SHR, Wister-Kyoto strain); assay: Antihypertensive activity in male hypertensive rats (SHR), systolic blood pressure by tail-cuff; assay type: in vivo; conditions: Rattus norvegicus, po, os, 0.5% methylcellulose, measured 1, 3, 5 and 7 hours after administration
Description: The antihypertensive activity of the esters according to the invention was evaluated in male hypertensive rats (SHR, Wister-Kyoto strain, 15-25 weeks old). The determination of blood pressure was performed by an indirect method (M. Gerald et al., Arzneim, Forsch., 18, 1825, 1968). The animals were prewarmed in a heating chamber at a temperature of from 35° to 37° C. for a period of 15 minutes before pressure determination. The compounds tested by oral route were dissolved or suspended in a 0.5% methylcellulose solution. Controls were given only the vehicle. Systolic blood pressure and heart rate were measured 1, 3, 5 and 7 hours after drug administration by means of a tail-cuff and a pulse transducer.

[2] = system: methacholine induced coronary spasm; assay: Coronary dilating activity in anesthetized normotensive rats, antagonism of methacholine induced coronary spasm; assay type: in vivo; conditions: Rattus norvegicus, iv infusion, water:dimethylformamide 9:1
Description: Coronary dilating activity was evaluated in anesthetized normotensive rats (weighing about 500 g), as the ability to antagonize methacholine induced coronary spasm. Rats were instrumented for methacholine infusion into the coronary ostium, while spastic activity was detected as ST segment elevation in D2 ECG recording (K. Sakai et al., J. Pharm. Meth., 5, 325, 1981). The compounds tested by i.v. infusion were dissolved in water:dimethylformamide (9:1 by volume). Activity was detected as normalization of ECG tracing after compounds administration during methacholine infusion.

[3] = LD50 in the mouse per os (method of C. S. Weil); conditions: in vivo, po
Description: The LD50 of the compounds according to the invention was determined in the mouse per os, according to the method described by C. S. Weil (Biometrics, 8, 249, 1952).

Compound | ED25 [1] | ED50 [2] | LD50 [3]
CCCOCCOC(=O)C1=C(C)NC(C)=C(C(=O)OC(C)CN(C)CCCC(C#N)(c2ccc(OC)c(OC)c2)C(C)C)C1c1cccc(Cl)c1Cl (centres unmarked) [Compound 2404, 2-Propoxy-ethyl 2-[4-cyano-4-(3,4-dimethoxyphenyl)-5,N-dimethyl-hexylamino]-1-methylethyl 1,4-dihydro-2,6-dimethyl-4-(2,3-dichlorophenyl)-pyridine-3,5-dicarboxylate] | 17.8 mg/kg |  | 
COC(=O)C1=C(C)NC(C)=C(C(=O)OCCN(C)CCCC(C#N)(c2ccc(OC)c(OC)c2)C(C)C)C1c1cccc([N+](=O)[O-])c1 (centres unmarked) [Compound 2245, Methyl 2-[4-cyano-4-(3,4-dimethoxyphenyl)-5,N-dimethyl-hexylamino]-ethyl 1,4-dihydro-2,6-dimethyl-4-(3-nitrophenyl)-pyridine-3,5-dicarboxylate] | 6.8 mg/kg | 0.301 mg/kg | 278 mg/kg
COc1ccc(C(C#N)(CCCN(C)CC(C)OC(=O)C2=C(C)NC(C)=C(C(=O)OCC(C)C)C2c2cccc(Cl)c2Cl)C(C)C)cc1OC (centres unmarked) [Compound 2392, Isobutyl 2-[4-cyano-4-(3,4-dimethoxyphenyl)-5,N-dimethyl-hexylamino]-1-methylethyl 1,4-dihydro-2,6-dimethyl-4-(2,3-dichlorophenyl)-pyridine-3,5-dicarboxylate] | 14.9 mg/kg |  | 
